Laboratory results reported in patent US20100204265A1 (priority 2009, published 2010).

Legend:
[1] = patients treated at currently recommended doses; cited from earlier work
[2] = test system: ET (Huh-lucubineo-ET) cell line harboring I389luc-ubi-neo/NS3-3′/ET HCV replicon; experiment: Replicon assay (HCV replicon, luciferase readout); format: cell-based; conditions: Hepatitis C virus
Summary of the method: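 Compounds at 10-point 2-fold dilutions (overall 0.1 nM to […], 0.5% DMSO) were applied to ET cells carrying a luciferase-neo HCV replicon, seeded a day earlier. After 48-72 hours, luciferase-based % inhibition was fitted with a Hill equation for EC50, and parallel WST-1 readings gave TC50.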

Row | Compound | significant hemolysis, share of patients [1] | EC50 [2] [µM]
1 | NC(=O)c1ncn([C@@H]2O[C@H](CO)[C@@H](O)[C@H]2O)n1 [Ribavirin, 1-P-D-ribofuranosyl-1H-1,2,-4-triazole-3-carboxamide] | 10-20% | 
2 | COC(=O)C(NC(=O)c1cn2cc(-c3ccoc3)cc(C(F)(F)F)c2n1)C(C)(C)C (centres unmarked) [Compound 154, 2-[(6-Furan-3-yl-8-trifluoromethyl-imidazo[1,2-a]pyridine-2-carbonyl)-amino]-3,3-dimethyl-butyric acid methyl ester] |  | 27.7
